Data as given in patent US5191079A, “Quinolinecarboxylic acid derivatives” (priority 1990, dated 1993).
≈ marks a conversion by molar mass, not a printed value. Read-outs that look alike come from different tables or passages of the source.

Tests used:
Format in all cases: cell-based
[1] = system: Escherichia coli NIHJ JC-2; test: MIC, Experiment 1; settings: NIHJJC2, E. coli NIHJ JC-2, Gram -, read-out: Min. inhib. concentr. (MIC)
Procedure: (§1) The compounds of the present invention (B, E, G, H, M, N, O, P and Q) were each dissolved in dimethylsulfoxide to prepare a solution of 5000 μg/ml in concentration. The compounds of the present invention (I, J and K) and the known compound (Y) were each dissolved in sterilized distilled water to prepare a solution of 5000 μg/ml in concentration. Each solution was diluted with sterilized distilled water to prepare a standard solution with a concentration of each test compound: 1000 μg/ml. The test was carried out by a method as appointed by Japan Society of Chemotherapy [cf. Chemotherapy, 29, 76-79 (1981), TOKYO].
(§2) As to Streptococcus pneumoniae and Streptococcus pyogenes, Brain heart infusion broth (manufactured by DIFCO) was used as the medium for the preculture thereof, and a heart infusion agar medium containing 5% defibrinated horse blood (manufactured by Nissui Seiyaku K. K., Japan) was used as the medium for the measurement of minimum inhibitory concentration (MIC). As to other microorganisms, a sensitivity test broth (manufactured by Nissui Seiyaku K. K.) was used as the medium for the preculture thereof, and a sensitivity test agar medium (manufactured by Nissui Seiyaku K. K.) was used as the medium for the measurement of MIC.

[2] = system: Klebsiella pneumoniae PCI-602; test: MIC, Experiment 1; settings: PCI602, K. pneumoniae PCI-602, Gram -, read-out: Min. inhib. concentr. (MIC)
Procedure: as §1, §2

[3] = system: Staphylococcus aureus ATCC 9144; test: MIC, Experiment 1; settings: ATCC9144, S. aureus ATCC 9144, Gram +, read-out: Min. inhib. concentr. (MIC)
Procedure: as §1, §2

[4] = system: Acinetobacter calcoaceticus Ac 54; test: MIC, Experiment 1; settings: AC54, A. calcoaceticus Ac 54, Gram -, read-out: Min. inhib. concentr. (MIC)
Procedure: as §1, §2

Bacillus cereus IAM 1029 = test: MIC, Experiment 1; settings: IAM1029, B. cereus IAM 1029, Gram +, read-out: Min. inhib. concentr. (MIC)
Procedure: as §1, §2

[5] = system: Staphylococcus aureus FDA 243; test: MIC, Experiment 1; settings: FDA243, S. aureus FDA 243, Gram +, read-out: Min. inhib. concentr. (MIC)
Procedure: as §1, §2

[6] = system: Staphylococcus aureus IID 803; test: MIC, Experiment 1; settings: IID803, S. aureus IID 803, Gram +, read-out: Min. inhib. concentr. (MIC)
Procedure: as §1, §2

[7] = system: Streptococcus pyogenes Cook; test: MIC, Experiment 1; settings: S. pyogenes Cook, Gram +, agar with 5% defibrinated horse blood, read-out: Min. inhib. concentr. (MIC)
Procedure: as §1, §2

[8] = system: Staphylococcus aureus FDA 209P JC-1; test: MIC, Experiment 1; settings: FDA209P, S. aureus FDA 209P JC-1, Gram +, read-out: Min. inhib. concentr. (MIC)
Procedure: as §1, §2

Enterobacter cloacae 963 = test: MIC, Experiment 1; settings: E. cloacae 963, Gram -, read-out: Min. inhib. concentr. (MIC)
Procedure: as §1, §2

[9] = system: Streptococcus pyogenes Sv; test: MIC, Experiment 1; settings: S. pyogenes Sv, Gram +, agar with 5% defibrinated horse blood, read-out: Min. inhib. concentr. (MIC)
Procedure: as §1, §2

[10] = system: Streptococcus pyogenes Su; test: MIC, Experiment 1; settings: S. pyogenes Su, Gram +, agar with 5% defibrinated horse blood, read-out: Min. inhib. concentr. (MIC)
Procedure: as §1, §2

[11] = system: Streptococcus pneumoniae IID 552; test: MIC, Experiment 1; settings: IID552, S. pneumoniae IID 552, Gram +, agar with 5% defibrinated horse blood, read-out: Min. inhib. concentr. (MIC)
Procedure: as §1, §2

[12] = system: Staphylococcus aureus Terajima (IID 670); test: MIC, Experiment 1; settings: IID670, S. aureus Terajima (IID 670), Gram +, read-out: Min. inhib. concentr. (MIC)
Procedure: as §1, §2

[13] = system: clinically isolated Enterococcus faecalis; test: In vitro antibacterial activity against clinical isolates, Experiment 2; settings: for MIC50: 50% of strains, read-out: MIC50
Procedure: (§3) The above solutions were then diluted with sterilized distilled water to prepare a standard solution with a concentration of the test compound: 1000 μg/ml each.
(§4) For the preculture of each microorganism, there was used as the medium a sensitivity test broth (manufactured by Nissui Seiyaku K. K., Japan), and for the measurement of MIC, there was used a sensitivity test agar medium (manufactured by Nissui Seiyaku K. K.).
(§5) The clinically isolates used above were isolated from Nov. 1988 to Jun. 1989 and were obtained from Research Section, Tokyo Clinical Research Center.

[14] = system: clinically isolated Staphylococcus aureus; test: as above
Procedure: as §3, §4, §5

[15] = system: clinically isolated Staphylococcus epidermidis; test: as above; settings: Staphylococcus epidermidis; for MIC50: 50% of strains, read-out: MIC50
Procedure: as §3, §4, §5

[16] = system: clinically isolated Enterococcus faecium; test: as above
Procedure: as §3, §4, §5

[17] = system: Staphylococcus epidermidis IAM 1296; test: MIC, Experiment 1; settings: IAM1296, S. epidermidis IAM 1296, Gram +, read-out: Min. inhib. concentr. (MIC)
Procedure: The compounds of the present invention ([…] and Q) were each dissolved in dimethylsulfoxide to prepare a solution of 5000 μg/ml in concentration. The compounds of the present invention (I, J and K) and the known compound (Y) were each dissolved in sterilized distilled water to prepare a solution of 5000 μg/ml in concentration. […] The test was carried out by a method as appointed by Japan Society of Chemotherapy [cf. Chemotherapy, 29, 76-79 (1981), TOKYO]. As to Streptococcus pneumoniae and Streptococcus pyogenes, Brain heart infusion broth (manufactured by DIFCO) was used as the medium for the preculture thereof, and a heart infusion agar medium containing 5% defibrinated horse blood (manufactured by Nissui Seiyaku K. K., Japan) was used as the medium for the measurement of minimum inhibitory concentration (MIC). As to other microorganisms, a sensitivity test broth (manufactured by Nissui Seiyaku K. K.) was used as the medium for the preculture thereof, and a sensitivity test agar medium (manufactured by Nissui Seiyaku K. K.) was used as the medium for the measurement of MIC.

[18] = 25 clinical strains E. faecalis
[19] = 25 clinical strains S. aureus incl. 16 methicillin resistant
[20] = 25 clinical strains S. epidermidis

| SMILES | MIC [1] | MIC [2] | MIC [3] | MIC [4] | MIC (Bacillus cereus IAM 1029) | MIC [5] | MIC [6] | MIC [7] | MIC [8] | MIC (Enterobacter cloacae 963) | MIC [9] | MIC [10] | MIC [11] | MIC [12] | MIC [13, 18] | MIC50 [13, 18] | MIC [14, 19] | MIC [15, 20] | MIC50 [15, 20] | MIC ([16]; 25 clinical strains E. faecium) | further results |
| --- | --- | --- | --- | --- | --- | --- | --- | --- | --- | --- | --- | --- | --- | --- | --- | --- | --- | --- | --- | --- | --- |
| CN1Cc2csc3c(C(=O)O)c(=O)c4cc(F)c(N5CCN6CCOC[C@H]6C5)c1c4n23 [Compound (F), 9,1-(Methylimino)methano-7-fluoro-8-[(6R)-1,8-diaza-4-oxabicyclo[4.4.0]deca-8-yl]-5-oxo-5H-thiazolo[3,2-a]quinoline-4-carboxylic acid] | 0.39 µg/mL (≈ 0.877 µM) | 0.013 µg/mL (≈ 0.0292 µM) | 0.025 µg/mL (≈ 0.0562 µM) | 0.013 µg/mL (≈ 0.0292 µM) | 0.025 µg/mL (≈ 0.0562 µM) | 0.013 µg/mL (≈ 0.0292 µM) | 0.013 µg/mL (≈ 0.0292 µM) | 0.05 µg/mL (≈ 0.112 µM) | 0.025 µg/mL (≈ 0.0562 µM) | 0.78 µg/mL (≈ 1.75 µM) | 0.05 µg/mL (≈ 0.112 µM) | 0.05 µg/mL (≈ 0.112 µM) | 0.05 µg/mL (≈ 0.112 µM) | 0.05 µg/mL (≈ 0.112 µM) | 0.05 to 6.25 µg/mL (≈ 0.112 to 14.1 µM) | 0.2 µg/mL (≈ 0.45 µM) | 0.013 to 0.78 µg/mL (≈ 0.0292 to 1.75 µM) | 0.013 to 1.56 µg/mL (≈ 0.0292 to 3.51 µM) | 0.05 µg/mL (≈ 0.112 µM) | 0.2 to 6.25 µg/mL (≈ 0.45 to 14.1 µM) | MIC90 [13]: 6.25 µg/mL (≈ 14.1 µM); MIC50 [14]: 0.025 µg/mL (≈ 0.0562 µM); MIC90 [14]: 0.78 µg/mL (≈ 1.75 µM); MIC90 [15]: 0.78 µg/mL (≈ 1.75 µM); MIC50 [16]: 1.56 µg/mL (≈ 3.51 µM); MIC90 [16]: 6.25 µg/mL (≈ 14.1 µM); MIC [17]: 0.05 µg/mL (≈ 0.112 µM) |
| CN1Cc2csc3c(C(=O)O)c(=O)c4cc(F)c(N5CCOC(CF)C5)c1c4n23 (stereo not drawn) [Compound (C), 9,1-(Methylimino)methano-7-fluoro-8-(2-fluoromethylmorpholino)-5-oxo-5H-thiazolo[3,2-a]quinoline-4-carboxylic acid] | 0.2 µg/mL (≈ 0.475 µM) | ≤ 0.006 µg/mL | 0.013 µg/mL (≈ 0.0308 µM) | ≤ 0.006 µg/mL | 0.013 µg/mL (≈ 0.0308 µM) | ≤ 0.006 µg/mL | ≤ 0.006 µg/mL | 0.05 µg/mL (≈ 0.119 µM) | 0.013 µg/mL (≈ 0.0308 µM) | 0.2 µg/mL (≈ 0.475 µM) | 0.05 µg/mL (≈ 0.119 µM) | 0.025 µg/mL (≈ 0.0593 µM) | 0.025 µg/mL (≈ 0.0593 µM) | 0.013 µg/mL (≈ 0.0308 µM) | 0.05 to 3.13 µg/mL (≈ 0.119 to 7.43 µM) | 0.1 µg/mL (≈ 0.237 µM) | 0.006 to 0.2 µg/mL (≈ 0.0142 to 0.475 µM) | 0.006 to 0.39 µg/mL (≈ 0.0142 to 0.925 µM) | 0.013 µg/mL (≈ 0.0308 µM) | 0.05 to 6.25 µg/mL (≈ 0.119 to 14.8 µM) | MIC90 ([13]; 25 clinical strains E. faecalis, 90% of strains, read-out: MIC90): 3.13 µg/mL (≈ 7.43 µM); MIC50 ([14]; 25 clinical strains S. aureus incl. 16 methicillin resistant, 50% of strains, read-out: MIC50): 0.013 µg/mL (≈ 0.0308 µM); MIC90 ([14]; 25 clinical strains S. aureus incl. 16 methicillin resistant, 90% of strains, read-out: MIC90): 0.2 µg/mL (≈ 0.475 µM); MIC90 ([15]; 25 clinical strains S. epidermidis, 90% of strains, read-out: MIC90): 0.39 µg/mL (≈ 0.925 µM); MIC50 ([16]; 25 clinical strains E. faecium, 50% of strains, read-out: MIC50): 0.78 µg/mL (≈ 1.85 µM); MIC90 ([16]; 25 clinical strains E. faecium, 90% of strains, read-out: MIC90): 3.13 µg/mL (≈ 7.43 µM); MIC [17]: 0.025 µg/mL (≈ 0.0593 µM) |
